Data reported in US4727070A, “3-Propenzl cephalosporin isomer separation process and derivative” (Bristol-Myers Company, priority 1985, dated 1988).

Experiments:
Gram-negative = details: cited from earlier work
[1] = Solubility in organic solvents (methanol, acetone, methanol-acetone mixture); type: physicochemical; details: for solubility in methanol-acetone mixture: methanol-acetone containing 20% to 50% by volume methanol, room temperature or below
Excerpt: In carrying out the foregoing process, it is preferred to use sodium 2-ethylhexanoate as salt-forming reagent, but other reagents such as sodium acetate or the sodium salt of other carboxylic acids may be employed. A reaction inert organic solvent such as a liquid alkanol or ester, is preferably employed in combination with the ketone used as imidazolidinone-forming reagent as solvent. A minimal quantity of water may also be employed to facilitate dissolution. The preferred solvents are mixtures of methanol and acetone. […] Accordingly mixtures of these two solvents are employed to provide the desired differential solubility. Mixtures of methanol and acetone containing from 20% to 50% by volume of methanol are suitable. The antibiotic sodium salt 2,2-dimethylimidazolidinone derivative is insoluble in the methanol-acetone mixture at room temperature or below while the 2,2-dimethylimidazolidinone derivative sodium salt of the (E)-isomer is soluble. This difference in solubility provides a basis for the separation of these, otherwise very similar materials.

Water solubility = type: physicochemical
[2] = Aqueous solution stability (250 mg/ml) at room temperature; type: physicochemical; details: for pH of the aqueous solution: aqueous solution for parenteral injection
[3] = Solid state stability on storage (purity of sample); type: physicochemical; details: for remaining at 672 h: 4 Weeks

For `C/C=C\C1=C(C(=O)O)N2C(=O)C(NC(=O)[C@H](N)c3ccc(O)cc3)[C@H]2SC1` (stereo partly drawn) [BMY-28100, 7-[D-2-amino-2-(4-hydroxyphenyl)acetamido]-3-[(Z)-1-propenyl]ceph-3-em-4-carboxylic acid], the “Gram-negative antibacterial activity compared to the (E)-isomer” value (Gram-negative) is listed as “improved”.
In the case of `C/C=C/C1=C(C(=O)O)N2C(=O)C(N3C(=O)[C@@H](c4ccc(O)cc4)NC3(C)C)C2SC1` (some centres unmarked) [acetonide of BMY-28167], the solubility in acetone [1] is reported as “substantially insoluble”, the solubility in methanol [1] is reported as “very soluble” and the “solubility in methanol-acetone mixture” value [1] is reported as “soluble”.
For `C/C=C\C1=C(C(=O)O)N2C(=O)C(N3C(=O)[C@@H](c4ccc(O)cc4)NC3(C)C)[C@H]2SC1` (some centres unmarked) [sodium 7-[2,2-dimethyl-4-(4-hydroxyphenyl)-5-oxo-1-imidazolidinyl]-3-[(Z)-1-propenyl]ceph-3-em-4-carboxylate], the water solubility (Water solubility) was “several hundred”, the “time to 10% potency loss in aqueous solution” value ([2]; 250 mg/ml aqueous solution, room temperature, pH 7.2) was “approximately 2 hours” and the “pH of the aqueous solution” value [2] was 7.2. For the same compound, the solubility in acetone [1] was “substantially insoluble”, the solubility in methanol [1] was “very soluble” and the “solubility in methanol-acetone mixture” value [1] was “insoluble”. The remaining at 24 h ([3]; 1 Day, 100 deg. C.) was 80%, the remaining at 168 h ([3]; 1 Week, 70 deg. C.) was 94% and the remaining at 672 h ([3]; 37 deg. C.) was 100%. It also gave a remaining at 672 h ([3]; 45 deg. C.) of 102% and a remaining at 672 h ([3]; 56 deg. C.) of 98.6%.
In the case of `C/C=C\C1=C(C(=O)[O-])N2C(=O)C(NC(=O)[C@H](N)c3ccc(O)cc3)[C@H]2SC1.[Na+]` (stereo partly drawn) [sodium salt of the antibiotic, sodium 7-[D-2-amino-2-(4-hydroxyphenyl)acetamido]-3-((Z)-1-propenyl)ceph-3-em-4-carboxylate, reference compound], the “pH of the aqueous solution” value [2] is reported as 8.2 and the “time to 10% potency loss in aqueous solution” value ([2]; sodium salt of the antibiotic per se, solution pH 8.2) is reported as 30 min.
